Experimental data taken from patent publication US5151352A, “Process for producing diterpene compounds” (Kyowa Hakko Kogyo Co., Ltd., priority 1990, dated 1992).
Converted amounts (≈) assume the structure as drawn.

Assays:
[1] = system: lymphocytic leukemia p338 tumor cells; experiment: Effect on lymphocytic leukemia (life-prolonging effect); type: in vivo, CDF1 male mice; conditions: i.p., 24 hours after i.p. transplantation
Procedure: 1×10^6 lymphocytic leukemia p338 tumor cells were intraperitoneally transplanted into CDF1 male mice weighing 22 g (each group having 5 animals). 24 hours after the trans- plantation, 0.2 ml of a solution of UCT4-B in physiological saline or 0.2 ml of physiological saline (the control group) was intraperitoneally administered to the animals.
The results of the test are expressed in terms of T/C (%) calculated by dividing the average survival days of each test group (T) with that of the control group (C).

[2] = Acute toxicity, single intravenous administration, 14 days survival; conditions: mouse, in vivo, ddy mice, single i.v., Behrens-Karber method
Procedure: UCT4-B was intravenously administered once to ddy mice weighing about 20 g (each group having 5 animals) and then the survival state of the animals was monitored for 14 days following the administration. Then LD50 of the compound was calculated based on the mortality of mice in each group in accordance with the Behrens-Karber method.

[3] = system: Enterococcus faecium ATCC 10541; experiment: Antibacterial activity, agar dilution method (pH 7.0); type: cell-based; conditions: ATCC10541, read-out: minimum growth inhibition concentration (MIC)
Excerpt: (§1) The antibacterial activities of UCT4-B on four bacteria (i.e., Staphylococcus aureus, Enterococcus faecium, Bacillus subtilis, Klebsiella pneumoniae) were examined by the agar dilution method (pH 7.0)[refer to "Biseibutsu Jikken Manyuaru (Manual of The Microbial Experiments)" 80, Kodansha (1986)].
(§2) The results are shown in terms of the minimum growth inhibition concentration (MIC) in Table 2.

[4] = system: Staphylococcus aureus ATCC 6538P; experiment: as above; type: cell-based; conditions: ATCC6538P, read-out: minimum growth inhibition concentration (MIC)
Excerpt: as §1, §2

[5] = system: Bacillus subtilis ATCC 10707; experiment: as above; type: cell-based; conditions: ATCC10707, read-out: minimum growth inhibition concentration (MIC)
Excerpt: as §1, §2

[6] = system: Klebsiella pneumoniae ATCC 10031; experiment: as above; type: cell-based; conditions: ATCC10031, read-out: minimum growth inhibition concentration (MIC)
Excerpt: as §1, §2

In the case of `CC1C(O)C(=O)C2(C)C(CO)=CCCC2C1(C)CC(O)C1(C(=O)C=O)CO1` (stereo not shown) [UCT4-B], the “Life-prolonging effect (T/C %)” value ([1]; 3 mg/kg) is reported as 124%, the “Life-prolonging effect (T/C %)” value ([1]; 6 mg/kg) is reported as 131% and the “Life-prolonging effect (T/C %)” value ([1]; 12 mg/kg) is reported as 127%. For the same compound, the “Life-prolonging effect (T/C %)” value ([1]; 25 mg/kg) was 137%, the “Life-prolonging effect (T/C %)” value ([1]; 50 mg/kg) was 141% and the LD50 at 336 h [2] was ≥ 50 mg/kg. The MIC [3] was 4.1 µg/mL (≈ 10.8 µM), the MIC [4] was 4.1 µg/mL (≈ 10.8 µM) and the MIC [5] was 8.3 µg/mL (≈ 21.8 µM). For the same compound, the MIC [6] was 2.1 µg/mL (≈ 5.52 µM), the Solubility (Solubility; acetonitrile) was “soluble” and the Solubility (Solubility; chloroform) was “highly soluble”. The Solubility (Solubility; ethyl acetate) was “highly soluble”, the Solubility (Solubility; hexane) was “insoluble” and the Solubility (Solubility; methanol) was “highly soluble”. For the same compound, the Solubility (Solubility; water) was “soluble”.
